Experimental data taken from US10874743B2, “IRAK degraders and uses thereof” (Kymera Therapeutics, Inc., priority 2017, dated 2020).

Molecular target: T1, IRAK4 (Homo sapiens, UniProt Q9NWZ3)
T1 sequence (Q9NWZ3 1-460): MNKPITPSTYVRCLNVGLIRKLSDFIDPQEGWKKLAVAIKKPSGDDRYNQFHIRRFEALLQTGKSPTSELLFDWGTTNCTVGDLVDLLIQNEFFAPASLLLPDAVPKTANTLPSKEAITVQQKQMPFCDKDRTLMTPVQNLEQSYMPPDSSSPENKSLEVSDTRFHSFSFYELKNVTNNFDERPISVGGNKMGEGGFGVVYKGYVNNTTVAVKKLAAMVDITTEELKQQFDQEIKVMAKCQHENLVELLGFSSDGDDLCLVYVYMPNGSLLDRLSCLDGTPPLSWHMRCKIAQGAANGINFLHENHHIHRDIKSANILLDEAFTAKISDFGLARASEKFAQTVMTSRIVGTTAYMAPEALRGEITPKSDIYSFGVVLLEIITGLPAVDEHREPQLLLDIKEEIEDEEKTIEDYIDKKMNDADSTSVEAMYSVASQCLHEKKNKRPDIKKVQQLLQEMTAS
Assay: OCI-LY-10 degradation assay (western blot, % IRAK4 degraded after 4 hours)
Format: cell-based
Design: endogenous in cells; host or cells: OCI-LY10
Conditions: OCI-LY10 cells; for OCI-LY10 % IRAK4 Degradation: IRAK4 degraded after 4 hours, western blot; for OCI-LY10 % IRAK4 Degradation (0.01 uM) / OCI-LY10 % IRAK4 Degradation (0.1 uM) / OCI-LY10 % IRAK4 Degradation (1 uM): 4 hours; for OCI-LY10 % IRAK4 Degradation (0.01 uM): 0.01 uM compound; for OCI-LY10 % IRAK4 Degradation (0.1 uM): 0.1 uM compound; for OCI-LY10 % IRAK4 Degradation (1 uM): 1 uM compound
Summary of the method: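 IRAK4 loss after 4 h at 37° C was scored A (>50%), B (>20-50%) or C (<20%) from infrared western blots of RIPA lysates, 20-25 μg protein per lane. Compound was applied at 0.003-10 μM final to OCI-LY10 cells cultured in RPMI-1640 with 20% FBS and 55 μM 2-ME.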

Structure (SMILES) | OCI-LY10 % IRAK4 Degradation | OCI-LY10 % IRAK4 Degradation (0.01 uM) | OCI-LY10 % IRAK4 Degradation (0.1 uM) | OCI-LY10 % IRAK4 Degradation (1 uM)
NC(=O)[C@H](O)C[C@H]1CCc2sc3ncnc(O[C@H]4CC[C@H](N5CCN(CCOCCOCCNc6cccc7c6C(=O)N(C6CCC(=O)NC6=O)C7=O)CC5)CC4)c3c21 (stereo partly drawn) [I-91, (2R)-3-[(8R)-1-[4-[4-[2-[2-[2-[[2-(2,6-dioxo-3-piperidyl)-1,3-dioxo-isoindolin-4-yl]amino]ethoxy]ethoxy]ethyl]piperazin-1-yl]cyclohexoxy]-7,8-dihydro-6H-cyclopenta[4,5]thieno[1,2-c]pyrimidin-8-yl]-2-hydroxy-propanamide] | C (<20% degradation) | – | – | –
CC(C)(OCCOCCOCCNc1cccc2c1C(=O)N(C1CCC(=O)NC1=O)C2=O)C(F)CNC(=O)c1cnc(Nc2ccc3cnccc3n2)cc1NC1CC1 (centres unmarked) [I-56] | C (<20% degradation) | – | – | –
CC(CNc1cccc2c1C(=O)N(C1CCC(=O)NC1=O)C2=O)OCCOCCOCC(F)CNC(=O)c1cnc(Nc2ccc3cnccc3n2)cc1NC1CC1 (centres unmarked) [I-93, 4-(Cyclopropylamino)-N-[3-[2-[2-[2-[[2-(2,6-dioxo-3-piperidyl)-1,3-dioxo-isoindolin-4-yl]amino]-1-methyl-ethoxy]ethoxy]ethoxy]-2-fluoro-propyl]-6-(1,6-naphthyridin-2-ylamino)pyridine-3-carboxamide] | C (<20% degradation) | – | – | –
CC[C@@H]1[C@H](F)C(=O)N[C@@H]1COc1ncc(C#Cc2ccc(C(=O)NCCOCCOCCOCCNc3cccc4c3C(=O)N(C3CCC(=O)NC3=O)C4=O)cc2)c2cc(C(N)=O)c(OC)cc12 (stereo partly drawn) [I-126, 4-[2-[4-[2-[2-[2-[2-[[2-(2,6-Dioxo-3-piperidyl)-1,3-dioxo-isoindolin-4-yl]amino]ethoxy]ethoxy]ethoxy]ethylcarbamoyl]phenyl]ethynyl]-1-[[(2S,3S,4S)-3-ethyl-4-fluoro-5-oxo-pyrrolidin-2-yl]methoxy]-7-methoxy-isoquinoline-6-carboxamide] | B (>20-50% degradation) | – | – | –
N#Cc1cnc2c(cnn2-c2cc(NC3CC3)c(C(=O)N[C@H]3C[C@H](C(=O)NCCOCCOCCOCCOCCNc4cccc5c4C(=O)N(C4CCC(=O)NC4=O)C5=O)C3)cn2)c1 (some centres unmarked) [I-21, 6-(5-cyano-1H-pyrazolo[3,4-b]pyridin-1-yl)-4-(cyclopropylamino)-N-((1r,3r)-3-((14-((2-(2,6-dioxopiperidin-3-yl)-1,3-dioxoisoindolin-4-yl)amino)-3,6,9,12-tetraoxatetradecyl)carbamoyl)cyclobutyl)nicotinamide] | C (<20% degradation) | – | – | –
NC(=O)c1nn(-c2ccc(C(=O)NCCOCCOCCCc3cccc4c3C(=O)N(C3CCC(=O)NC3=O)C4=O)cc2)cc1NC(=O)c1coc(-c2ccnc(NCC(F)(F)F)c2)n1 (centres unmarked) [I-147] | A (>50% degradation) | – | – | –
Cn1cc(-c2nc(C(=O)Nc3cn(-c4ccc(CNCCOCCOCCNc5ccc6c(c5)C(=O)N(C5CCC(=O)NC5=O)C6=O)cc4)nc3C(F)F)co2)cn1 (centres unmarked) [I-353] | – | C (<20% degradation) | C (<20% degradation) | C (<20% degradation)
O=C(COc1cccc2c1C(=O)N(C1CCC(=O)NC1=O)C2=O)NCCCCNC(=O)[C@H]1CC[C@H](NC(=O)c2cnc(Nc3ccc4cnccc4n3)cc2NC2CC2)CC1 (some centres unmarked) [I-9] | C (<20% degradation) | – | – | –
CN(CCOCCCc1cccc2c1C(=O)N(C1CCC(=O)NC1=O)C2=O)Cc1ccc(-n2cc(NC(=O)c3coc(-c4ccncc4)n3)c(C(F)F)n2)cc1 (centres unmarked) [I-363] | – | C (<20% degradation) | C (<20% degradation) | C (<20% degradation)
N#Cc1cnc2c(cnn2-c2cc(NC3CC3)c(-c3cn(CCOCCOCCOCCNc4cccc5c4C(=O)N(C4CCC(=O)NC4=O)C5=O)nn3)cn2)c1 (centres unmarked) [I-175, 1-[4-(cyclopropylamino)-5-[1-[2-[2-[2-[2-[[2-(2,6-dioxo-3-piperidyl)-1,3-dioxo-isoindolin-4-yl]amino]ethoxy]ethoxy]ethoxy]ethyl]triazol-4-yl]-2-pyridyl]pyrazolo[3,4-b]pyridine-5-carbonitrile] | C (<20% degradation) | – | – | –
O=C1CCC(N2C(=O)c3cccc(NCCOCCN4CCO[C@@H](CNC(=O)c5ccc(-n6cc(NC(=O)c7coc(-c8ccnc(NCC(F)(F)F)c8)n7)c(C(F)F)n6)cc5)C4)c3C2=O)C(=O)N1 (some centres unmarked) [I-282] | – | C (<20% degradation) | C (<20% degradation) | C (<20% degradation)
O=C1CCC(N2C(=O)c3cccc(NCCOCCOCCN4Cc5ccc(-n6cc(NC(=O)c7coc(-c8ccnc(NCC9CC9)c8)n7)c(C(F)(F)F)n6)cc5C4)c3C2=O)C(=O)N1 (centres unmarked) [I-426, 2-[2-(Cyclopropylmethylamino)-4-pyridyl]-N-[1-[2-[2-[2-[2-[[2-(2,6-dioxo-3-piperidyl)-1,3-dioxo-isoindolin-4-yl]amino]ethoxy]ethoxy]ethyl]isoindolin-5-yl]-3-(trifluoromethyl)pyrazol-4-yl]oxazole-4-carboxamide] | – | C (<20% degradation) | C (<20% degradation) | C (<20% degradation)
Cc1ncsc1-c1ccc(CNC(=O)[C@@H]2C[C@@H](O)CN2C(=O)[C@@H](NC(=O)COCCOCCOCCOCCOCCNC(=O)C(F)CNC(=O)c2cnc(Nc3ccc4cnccc4n3)cc2NC2CC2)C(C)(C)C)cc1 (some centres unmarked) [I-207] | C (<20% degradation) | – | – | –
CN(CCCCCCCCCc1cccc2c1C(=O)N(C1CCC(=O)NC1=O)C2=O)Cc1ccc(-n2cc(NC(=O)c3coc(-c4ccnc(NCC5CC5)c4)n3)c(C(N)=O)n2)cc1 (centres unmarked) [I-316] | – | B (>20-50% degradation) | B (>20-50% degradation) | B (>20-50% degradation)
N#Cc1cnc2c(cnn2-c2cc(NC3CC3)c(C(=O)NCC(F)COCCOCCOCCOCCNc3cccc4c3C(=O)N(C3CCC(=O)NC3=O)C4=O)cn2)c1 (centres unmarked) [I-72] | C (<20% degradation) | – | – | –
O=C1CCC(N2C(=O)c3cccc(N4CCN(CCOCCOCCNCc5ccc(-n6cc(NC(=O)c7coc(-c8ccnc(NCC9CC9)c8)n7)c(C(F)F)n6)cc5)CC4)c3C2=O)C(=O)N1 (centres unmarked) [I-336] | – | C (<20% degradation) | C (<20% degradation) | B (>20-50% degradation)
O=C1CCC(N2C(=O)c3ccc(CCCOCCOCCNCc4ccc(-n5cc(NC(=O)c6coc(-c7ccnc(NCC8CC8)c7)n6)c(C(F)(F)F)n5)cc4)cc3C2=O)C(=O)N1 (centres unmarked) [I-187, 2-[2-(Cyclopropylmethylamino)-4-pyridyl]-N-[1-[4-[[2-[2-[3-[2-(2,6-dioxo-3-piperidyl)-1,3-dioxo-isoindolin-5-yl]propoxy]ethoxy]ethylamino]methyl]phenyl]-3-(trifluoromethyl)pyrazol-4-yl]oxazole-4-carboxamide] | B (>20-50% degradation) | – | – | –
CC(C)(OCCNc1cccc2c1C(=O)N(C1CCC(=O)NC1=O)C2=O)C(F)CNC(=O)c1cnc(-n2ncc3cc(C#N)cnc32)cc1NC1CC1 (centres unmarked) [I-75] | C (<20% degradation) | – | – | –
O=C1CCC(N2C(=O)c3cccc(NCCOCCOCCNC(=O)c4ccc(-n5cc(NC(=O)c6coc(-c7ccnc(NCC8CC8)c7)n6)c(C(F)F)n5)cc4)c3C2=O)C(=O)N1 (centres unmarked) [I-246] | – | C (<20% degradation) | A (>50% degradation) | A (>50% degradation)
CN(CCCCCOCCCc1cccc2c1C(=O)N(C1CCC(=O)NC1=O)C2=O)Cc1ccc(-n2cc(NC(=O)c3coc(-c4ccnc(NCC5CC5)c4)n3)c(C(N)=O)n2)cc1 (centres unmarked) [I-312] | – | C (<20% degradation) | A (>50% degradation) | A (>50% degradation)
O=C1CCC(N2C(=O)c3cccc(NCCNCCOCCNCc4ccc(-n5cc(NC(=O)c6coc(-c7ccnc(NCC8CC8)c7)n6)c(C(F)(F)F)n5)cc4)c3C2=O)C(=O)N1 (centres unmarked) [I-307] | – | C (<20% degradation) | C (<20% degradation) | C (<20% degradation)
CC[C@@H]1[C@H](F)C(=O)N[C@@H]1COc1nccc2cc(C(=O)NCCOCCOCCOCCOCCNc3cccc4c3C(=O)N(C3CCC(=O)NC3=O)C4=O)c(OC)cc12 (some centres unmarked) [I-78] | C (<20% degradation) | – | – | –
CC(OCCOCCNc1cccc2c1C(=O)N(C1CCC(=O)NC1=O)C2=O)C(F)CNC(=O)c1cnc(Nc2ccc3cnccc3n2)cc1NC1CC1 (centres unmarked) [I-84] | C (<20% degradation) | – | – | –
O=C1CCC(N2C(=O)c3cccc(NC4CN(CCOCCOCCNCc5ccc(-n6cc(NC(=O)c7coc(-c8ccnc(NCC9CC9)c8)n7)c(C(F)F)n6)cc5)C4)c3C2=O)C(=O)N1 (centres unmarked) [I-338] | – | C (<20% degradation) | B (>20-50% degradation) | B (>20-50% degradation)
NC(=O)c1nn(-c2ccc(C(=O)NCCOCCOCCNc3cccc4c3C(=O)N(C3CCC(=O)NC3=O)C4=O)cc2)cc1NC(=O)c1coc(-c2ccnc(C3CC3)c2)n1 (centres unmarked) [I-424] | – | B (>20-50% degradation) | B (>20-50% degradation) | B (>20-50% degradation)
